# Source: US5905068A, “Retroviral protease inhibiting compounds” (Abbott Laboratories, priority 1996, dated 1999)
# Experiments:
# [1] = Cytotoxicity in uninfected MT4 cells (MTT); format: cell-based; details: human, 5 days, n=four duplicate determinations, read-out: CTC50 (50% cytotoxicity concentration)
# Protocol: The anti-HIV activity of the compound of the invention was determined in MF4 cells according to the following procedure: MT4 cells were infected with cell-free supernatant of HIVIIIB (previously frozen with known 50% tissue culture infectious dose (TCID50) at 0.003 multiplicity of infection (MOI)) for one hour. After one hour infection, cells were washed twice to remove residual viruses, resuspended in culture media and seeded into 96-well tissue culture plates at 1×10^4 cells per well with various half-log dilutions of compounds. Uninfected cells were included a toxicity and cell controls. […] All assay plates were incubated in a 37° C. incubator for 5 days. […] SDS (20%) with 0.02N HCl in water was added at 50 μL per well to lyse cells. Plates were incubated overnight for complete cell lysis and then read on a microtiter plate reader at 570/650 nm wavelengths to determine cell optical density (O.D.). Raw data was analysed for percent inhibition by the following formula: [formula]
# The 50% cytotoxicity concentration (CTC50) was calculated using uninfected MT4 cells
# HIVIIIB = test: Antiviral Activity: anti-HIV activity in MT4 cells infected with HIVIIIB (MTT); format: cell-based; details: Human immunodeficiency virus 1, 120 h, MOI 0.003, 5 days, n=four duplicate determinations
# Protocol: The anti-HIV activity of the compound of the invention was determined in MF4 cells according to the following procedure: MT4 cells were infected with cell-free supernatant of HIVIIIB (previously frozen with known 50% tissue culture infectious dose (TCID50) at 0.003 multiplicity of infection (MOI)) for one hour. After one hour infection, cells were washed twice to remove residual viruses, resuspended in culture media and seeded into 96-well tissue culture plates at 1×10^4 cells per well with various half-log dilutions of compounds. Uninfected cells were included a toxicity and cell controls. RPMI 1640 media (GIBCO) with 10% fetal bovine serum was used as culture media. Various concentrations (50%, 25% and 12.5%) of human serum (SIGMA) were added to culture media resulting in final concentrations of 60%, 35% and 22.5% total serum. All assay plates were incubated in a 37° C. incubator for 5 days. The compound 3-[4,5-dimethylthiozol-2-yl]-2,5-diphenyltetrazolium bromide (MTT, SIGMA, 5 mg .mL stock in PBS) was then added to all wells at 25 μL per well and incubated for 4 hours. SDS (20%) with 0.02N HCl in water was added at 50 μL per well to lyse cells. Plates were incubated overnight for complete cell lysis and then read on a microtiter plate reader at 570/650 nm wavelengths to determine cell optical density (O.D.). Raw data was analysed for percent inhibition by the following formula: [formula]
# The 50% effective concentration (EC50) was calculated by the median effect equation (Chou, 1975, Proc. Int. Cong. Pharmacol. 6th p. 619) to determine the efficacy of compound. The 50% cytotoxicity concentration (CTC50) was calculated using uninfected MT4 cells
# Under these conditions, the data of Table 2 was obtained (n=four duplicate determinations).
# HIV-1 protease = HIV-1 protease (Human immunodeficiency virus type 1 group M subtype B, UniProt P04585); test: Fluorogenic Assay for Screening Inhibitors of HIV Protease; details: pH 4.5
# Protocol: The inhibitory potency of the compounds of the invention were determined by the following method: The compound of the invention was dissolved in DMSO and a small aliquot further diluted with DMSO to 100 times the final concentration desired for testing. The reaction was carried out in a 6×50 mm tube in a total volume of 300 microliters. […] After addition of inhibitor, the reaction mixture was placed in the fluorometer cell holder and incubated at 30° C. for several minutes. The reaction was initiated by the addition of a small aliquot of cold HIV protease. The fluorescence intensity (excitation 340 nm, emission 490 nm) was recorded as a function of time. The reaction rate was determined for the first six to eight minutes. The observed rate was directly proportional to the moles of substrate cleaved per unit time. The percent inhibition was calculated according to the equation: 100×(1-(rate of inhibitor)/(rate in absence of inhibitor)). As a control, duplicate reactions were performed identically as above but without the addition of an inhibitor compound.
SMILES,CC50 at 120 h [1] [nM],EC50 (HIVIIIB) [nM],inhibition at 0.0005 µM (HIV-1 protease) [%],inhibition at 0.001 µM (HIV-1 protease) [%]
"Cc1ccc(N)c(C)c1OCC(=O)N[C@@H](Cc1ccccc1)C[C@H](O)[C@H](Cc1ccccc1)NC(=O)O[C@H]1CO[C@H]2OCC[C@H]21 [Example 16, (2S,3S,5S)-5-(2,6-Dimethyl-3-amino-phenoxyacetyl)amino-2-((3R,3aS,6aR)-bis-tetrahydrofuran-3-yl-oxycarbonyl)amino-1,6-diphenyl-3-hydroxyhexane]",> 100000,< 32,87,–
"Cc1cc(N)cc(C)c1SCC(=O)N[C@@H](Cc1ccccc1)C[C@H](O)[C@H](Cc1ccccc1)NC(=O)O[C@H]1CO[C@H]2OCC[C@H]21 [Example 17, 5-(2,6-Dimethyl-4-amino-phenylthioacetyl)amino-2-((3R,3aS,6aR)-bis-tetrahydrofuran-3-yl-oxycarbonyl)amino-1,6-diphenyl-3-hydroxybexane]",56000,5790,–,50
"O=C(N[C@@H](Cc1ccccc1)C[C@H](O)[C@H](Cc1ccccc1)NC(=O)O[C@H]1CO[C@H]2OCC[C@H]21)O[C@H]1CO[C@H]2OCC[C@H]21 [Example 20, (2S,3S,5S)-2,5-Di-((3R,3aS,6aR)-bis-Tetrahydrofuran-3-yl-oxycarbonyl)amino-1,6-diphenyl-3-hydroxyhexane]",> 100000,34,64,–
"O=C(N[C@@H](Cc1ccccc1)[C@@H](O)C[C@H](Cc1ccccc1)NC(=O)O[C@@H]1CO[C@@H]2OCC[C@@H]21)O[C@H]1CO[C@H]2OCC[C@H]21 [Example 22, (2S,3S,5S)-2-((3R,3aS,6aR)-bis-Tetrahydrofuran-3-yl-oxycarbonyl)amino-5-((3S,3aR,6aS)-bis-Tetrahydrofuran-3-yl-oxycarbonyl)amino-1,6-diphenyl-3-hydroxyhexane]",> 100000,107,73,–
"O=C(N[C@@H](Cc1ccccc1)C[C@H](O)[C@H](Cc1ccccc1)NC(=O)O[C@@H]1CO[C@@H]2OCC[C@@H]21)O[C@H]1CO[C@H]2OCC[C@H]21 [Example 23, (2S,3S,5S)-2-((3S,3aR,6aS)-bis-tetrahydrofuran-3-yl-oxycarbonyl)amino-5-((3R,3aS,6aR)-bis-tetrahydrofuran-3-yl-oxycarbonyl)amino-1,6-diphenyl-3-hydroxyhexane]",> 100000,891,39,–
"Cc1cc2[nH]cnc2c(C)c1OCC(=O)N[C@@H](Cc1ccccc1)C[C@H](O)[C@H](Cc1ccccc1)NC(=O)O[C@H]1CO[C@H]2OCC[C@H]21 [Example 24, (2S,3S,5S)-5-(4,6-Dimethyl-benzimidazol-5-yloxy-acetyl)amino-2-((3R,3aS,6aR)-bis-tetrahydrofuran-3-yl-oxycarbonyl)amino-1,6-diphenyl-3-hydroxyhexane]",> 100000,114,80,–
"Cc1cc2[nH]c(=O)[nH]c2c(C)c1OCC(=O)N[C@@H](Cc1ccccc1)C[C@H](O)[C@H](Cc1ccccc1)NC(=O)O[C@H]1CO[C@H]2OCC[C@H]21 [Example 25, (2S,3S,5S)-5-(4,6-Dimethyl-benzimidazolinon-5-yloxy-acetyl)amino-2-((3R,3aS,6aR)-bis-tetrahydrofuran-3-yl-oxycarbonyl)amino-1,6-diphenyl-3-hydroxyhexane]",> 100000,972,85,–
"Cc1cc2ncoc2c(C)c1OCC(=O)N[C@@H](Cc1ccccc1)C[C@H](O)[C@H](Cc1ccccc1)NC(=O)O[C@H]1CO[C@H]2OCC[C@H]21 [Example 26, (2S,3S,5S)-5-(4,6-Dimethyl-benzoxazol-5-yloxy-acetyl)amino-2-((3R,3aS,6aR)-bis-tetrahydrofuran-3-yl-oxycarbonyl)amino-1,6-diphenyl-3-hydroxyhexane]",29800,157,80,–
"Cc1cccc(C)c1OCC(=O)N[C@@H](Cc1ccccc1)[C@@H](O)C[C@H](Cc1ccccc1)NC(=O)O[C@@H]1CCSC1(C)C [Example 32, (2S,3S,5S)-2-(2,6-Dimethylphenoxyacetyl)amino-5-(3R-2,2-dimethyl-tetrahydrothienyloxycarbonyl)amino-1,6-diphenyl-3-hydroxyhexane]",> 100000,1180,50,–
"Cc1cccc(C)c1OCC(=O)N[C@@H](Cc1ccccc1)[C@@H](O)C[C@H](Cc1ccccc1)NC(=O)O[C@@H]1CCS(=O)(=O)C1(C)C [Example 33, (2S,3S,5S)-2-(2,6-Dimethylphenoxyacetyl)amino-5-(3R-2,2-dimethyl-1,1-dioxy-tetrahydrothienyloxycarbonyl)amino-1,6-diphenyl-3-hydroxyhexane]",18300,442,84,–
"CC(C)c1nc(CN(C)C(=O)N[C@H](C(=O)N[C@@H](Cc2ccccc2)C[C@H](O)[C@H](Cc2ccccc2)NC(=O)OC2COC3OCCC23)C(C)C)cs1 (stereo partly drawn) [Example 34, (2S,3S,5S)-5-(N-(N-((N-Methyl-N-((2-isopropyl-4-thiazolyl)methyl)amino)carbonyl)-L-valinyl)amino)-2-((3R,3aS,6aR), (3S,3aR,6aS)-bis-tetrahydrofuran-3-yl-oxycarbonyl)amino-1,6-diphenyl-3-hydroxyhexane]",56300,9,52,–
"O=C(N[C@@H](Cc1ccccc1)[C@@H](O)C[C@H](Cc1ccccc1)NC(=O)OC1COC2OCCC12)OCc1cncs1 (stereo partly drawn) [Example 35, (2S,3S,5S)-2-((5-Thiazolyl)methoxycarbonyl)amino-5-((3R,3aS,6aR), (3S,3aR,6aS)-bis-tetrahydrofuran-3-yl-oxycarbonyl)amino-1,6-diphenyl-3-hydroxyhexane]",> 100000,428,52,–
CC(C)c1nc(COC(=O)N[C@@H](C(=O)N[C@@H](Cc2ccccc2)C[C@H](O)[C@H](Cc2ccccc2)NC(=O)OC2COC3OCCC23)C(C)C)cs1 (stereo partly drawn) [Example 36],27800,30,66,–
CC(C)c1nc(COC(=O)N[C@H](C(=O)N[C@@H](Cc2ccccc2)C[C@H](O)[C@H](Cc2ccccc2)NC(=O)OC2COC3OCCC23)C(C)C)cs1 (stereo partly drawn) [Example 37],> 100000,14,83,–
"O=C(N[C@@H](Cc1ccccc1)[C@@H](O)C[C@H](Cc1ccccc1)NC(=O)O[C@@H]1CO[C@@H]2OCC[C@@H]21)OCc1cncs1 [Example 38, (2S,3S,5S)-2-((5-Thiazolyl)methoxycarbonyl)amino-5-((3S,3aR,6aS)-bis-tetrahydrofuran-3-yl-oxycarbonyl)amino-1,6-diphenyl-3-hydroxyhexane]",> 100000,140,53,–
"CC(C)c1nc(CN(C)C(=O)N[C@@H](C(=O)N[C@@H](Cc2ccccc2)C[C@H](O)[C@H](Cc2ccccc2)NC(=O)OC2COC3OCCC23)C(C)C)cs1 (stereo partly drawn) [Example 39, (2S,3S,5S)-5-(N-(N-((N-Methyl-N-((2-isopropyl-4-thiazolyl)methyl)amino)carbonyl)-D-valinyl)amino)-2-((3R,3aS,6aR), (3S,3aR,6aS)-bis-tetrahydrofuran-3-yl-oxycarbonyl)amino-1,6-diphenyl-3-hydroxyhexane]",56200,55,66,–
"O=C(N[C@@H](Cc1ccccc1)C[C@H](O)[C@H](Cc1ccccc1)NC(=O)OC1COC2OCCC12)OCc1cncs1 (stereo partly drawn) [Example 40, (2S,3S,5S)-5-((5-Thiazolyl)methoxycarbonyl)amino-2-((3R,3aS,6aR), (3S,3aR,6aS)-bis-tetrahydrofuran-3-yl-oxycarbonyl)amino-1,6-diphenyl-3-hydroxyhexane]",> 100000,502,43,–
"O=C(N[C@@H](Cc1ccccc1)C[C@H](O)[C@H](Cc1ccccc1)NC(=O)OC1COC2OCCC12)OC1COC2OCCC12 (stereo partly drawn) [Example 41, (2S,3S,5S)-2,5-((3R,3aS,6aR)-bis-Tetrahydrofuran-3-yl-oxycarbonyl)amino-1,6-diphenyl-3-hydroxyhexane]",> 100000,43,53,–
